According to patent US8658650B2, “Substituted 1,1,3,1-tetraoxidobenzo[D][1,3,2]dithiazoles as MGLUR4 allosteric potentiators, compositions, and methods of treating neurological dysfunction” (Vanderbilt University, priority 2009, dated 2014):
Read-outs that look alike come from different tables or passages of the source.

Experiments:
mGluR4 = mGluR4 (UniProt Q14833); test: mGluR4 potentiation assay (activity table; fluorescence plate reader, compound then EC20 agonist); type: cell-based; details: for % GluMax: maximum extent of potentiation; for EC50: potentiation of mGluR4, species of receptor not given
Experimental: The disclosed compounds and compositions can be evaluated for their ability to act as a potentiator of metabotropic glutamate receptor activity, in particular mGluR4 activity, by any suitable known methodology known in the art. For example, Chinese Hamster Ovary (CHO) cells transfected with human mGluR4 or HEK cells co-transfected with rat mGluR4 and the G-protein regulated Inwardly Rectifying Potassium channel (GIRK) were plated in clear bottom assay plates for assay in a Hamamatsu FDSS Fluorometric Plate Reader. The cells were loaded with either a Ca2+-sensitive fluorescent dye Fluo-4 or the thallium responsive dye BTC, AM and the plates were washed and placed into a suitablekinetic plate reader. For human mGluR4 assays, a fluorescence baseline was established for 3-5 seconds, the disclosed compounds were then added to the cells, and the response in cells was measured. Approximately two and a half minutes later, a concentration of mGluR4 orthosteric agonist (e.g. glutamate or L-AP4) eliciting approximately 20% (EC20) of the maximal agonist response was added to the cells, and the response was measured. Two minutes later, a concentration of mGluR4 agonist (e.g. glutamate or L-AP4) eliciting 80% (EC80) of the maximal agonist response was added to the cells, and the response was measured. For rat mGluR4/GIRK experiments, a baseline was established for approximately five seconds, disclosed compounds were added, and either an EC20 or EC80 concentration of agonist was added approximately two and one half minutes later. Potentiation of the agonist response of mGluR4 by the disclosed compounds was observed as an increase in response to the EC20 concentration of agonist in the presence of compound compared to the response to agonist in the absence of compound. Similarly, antagonism of the agonist response of mGluR4 by the disclosed compounds was observed as a decrease in response to the EC80 concentration of agonist in the presence of compound compared to the response to agonist in the absence of compound.
The above described assay operated in two modes. In the first mode, a range of concentrations of the disclosed compounds are added to cells, followed by a single fixed concentration of agonist. If the compound acts as a potentiatior, an EC50 value for potentiation and a maximum extent of potentiation by the compound at this concentration of agonist is determined by non-linear curve fitting. If the compound acts as a noncompetitive antagonist, an IC50 value is determined by non-linear curve fitting. In the second mode, several fixed concentrations of the disclosed compounds are added to various wells on a plate, followed by a range in concentrations of agonist for each concentration of disclosed compound. The EC50 values for the agonist at each concentration of compound are determined by non-linear curve fitting. A decrease in the EC50 value of the agonist with increasing concentrations of the sample compound (a leftward shift of the agonist concentration-response curve) is an indication of the degree of mGluR4 potentiation at a given concentration of the sample compound. A decrease in the maximal response of the agonist with increasing concentrations of the sample compounds, with or without a rightward shift in agonist potency, is an indication of the degree of noncompetitive antagonism at mGluR4. The second mode also indicates whether the sample compounds also affect the maximum response to mGluR4 to agonists.
These compounds are positive allosteric modulators (potentiators) of human and rat mGluR4 and were selective for mGluR4 compared to the other seven subtypes of metabotropic glutamate receptors.

[1] = intraperitoneal pharmacokinetics in male SD rats (plasma and brain); type: in vivo, rat; parameters: AUC(0-8) Brain: unit not given here; details: 10 mg/kg ip; for AUC(0-8) Brain / AUC(0-t): 0-8 h; for Log BB: brain/plasma
Experimental: FIG. 2 is a graph showing intraperitoneal pharmacokinetics of a compound of the present invention in male SD rats (N=3); Formulation: 10% tween 80 microsuspension; Dose: 10 mg/kg; Time points: 0.5 h, 1 h, 2 h, 4 h & 8 h; data are summarized in Table 1 and Table 2.
FIG. 3 is a graph showing intraperitoneal pharmacokinetics of a compound of the present invention in male SD rats (˜300 g); Dose:10 mg/kg, ip; Time points: 0.5 h, 1 h & 8 h (n=3); data are summarized in Table 1 and Table 2.
FIG. 4 is a graph showing intraperitoneal pharmacokinetics of a compound of the present invention in male SD rats (˜300 g); Dose:10 mg/kg, ip; Time points: 0.5 h, 1 h & 8 h (n=3); data are summarized in Table 1 and Table 2.
Additionally, certain exemplary disclosed compounds were evaluated for pharmacokinetic efficacy.

[2] = rat, brain, read-out: Elimination T1/2 Brain (converted)
[3] = rat, brain, read-out: Tmax Brain
[4] = rat, plasma, read-out: Elimination T1/2 Plasma (converted)
[5] = rat, plasma, read-out: Tmax Plasma

Compound	% GluMax (mGluR4)	EC50 (mGluR4)	other results
O=C(Nc1ccc(N2S(=O)(=O)c3ccccc3S2(=O)=O)cc1)c1ccccc1 [Example 1, N-(4-(1,1,3,3-tetraoxidobenzo[d][1,3,2]dithiazol-2-yl)phenyl)benzamide]	146%	203 nM	
O=C(Nc1ccc(N2S(=O)(=O)c3ccccc3S2(=O)=O)cc1)C1CCCCC1 [Example 3, N-(4-(1,1,3,3-tetraoxidobenzo[d][1,3,2]dithiazol-2-yl)phenyl)cyclohexanecarboxamide]	96%	128 nM	
O=C(Nc1ccc(N2S(=O)(=O)c3ccccc3S2(=O)=O)cc1)c1cccc(F)n1 [Example 5, 6-Fluoro-N-(4-(1,1,3,3-tetraoxidobenzo[d][1,3,2]dithiazol-2-yl)phenyl)picolinamide]	198%	179 nM	
O=C(Nc1ccc(N2S(=O)(=O)c3ccccc3S2(=O)=O)cc1)c1ncccc1F [Example 8, 3-Fluoro-N-(4-(1,1,3,3-tetraoxidobenzo[d][1,3,2]dithiazol-2-yl)phenyl)picolinamide]	69%	49.6 nM	
O=C(Nc1ccc(N2S(=O)(=O)c3ccccc3S2(=O)=O)cc1)C1CCCCO1 (centres unmarked) [Example 9, N-(4-(1,1,3,3-tetraoxidobenzo[d][1,3,2]dithiazol-2-yl)phenyl)tetrahydro-2H-pyran-2-carboxamide]	166%	914 nM	
O=C(Nc1ccc(N2S(=O)(=O)c3ccccc3S2(=O)=O)cc1F)c1ccco1 [Example 12, N-(2-fluoro-4-(1,1,3,3-tetraoxidobenzo[d][1,3,2]dithiazol-2-yl)phenyl)furan-2-carboxamide]	125%	9130 nM	
O=C(Nc1ccc(N2S(=O)(=O)c3ccccc3S2(=O)=O)cc1F)c1ccccn1 [Example 13, N-(2-fluoro-4-(1,1,3,3-tetraoxidobenzo[d][1,3,2]dithiazol-2-yl)phenyl)picolinamide]	62%	739 nM	
O=C(Nc1ccccn1)c1ccc(N2S(=O)(=O)c3ccccc3S2(=O)=O)cc1 [Example 14, N-(pyridin-2-yl)-4-(1,1,3,3-tetraoxidobenzo[d][1,3,2]dithiazol-2-yl)benzamide]	39%	113 nM	
O=S1(=O)c2ccccc2S(=O)(=O)N1c1ccc(NCc2ccccn2)cc1 [Example 16, 2-(4-((pyridine-2-ylmethyl)amino)phenyl)benzo[d][1,3,2]dithiazole-1,1,3,3-tetraoxide]	161%	2140 nM	
O=S1(=O)c2ccccc2S(=O)(=O)N1c1ccc(NC2(c3ccccn3)CC2)cc1 [Example 17]	165%	134 nM	
O=S1(=O)c2ccccc2S(=O)(=O)N1c1ccc(Nc2ccccn2)nc1 [Example 18, 2-(6-(pyridin-2-ylamino)pyridin-3-yl)benzo[d][1,3,2]dithiazole 1,1,3,3-tetraoxide]	73%	5450 nM	
O=C(Nc1ccc(N2S(=O)(=O)c3ccccc3S2(=O)=O)cc1)C1CCCCC1 [drawing 138]			V/F [1]: 6.7 L; Cmax Brain ([1]; brain): 983.43 ± 188.76 ng/mL or g; AUC(0-8) Brain ([1]; brain): 6295.60 ± 876.30; half-life [1, 2]: 12.2 h; Tmax [1, 3]: 0.5 h; Log BB ([1]; rat): 0.26; Cmax ([1]; rat, plasma): 1930 ± 845 ng/mL; AUC(0-t) ([1]; rat, plasma): 3400 ± 2990 ng·h/mL; half-life [1, 4]: 1.67 h; Tmax [1, 5]: 0.5 h; CL/F ([1]; rat, plasma): 46.7 mL/min/kg
O=C(Nc1ccc(N2S(=O)(=O)c3ccccc3S2(=O)=O)cc1)c1ccccc1 [drawing 139]			V/F [1]: 5.2 L; Cmax Brain ([1]; brain): 775.51 ± 90.00 ng/mL or g; AUC(0-8) Brain ([1]; brain): 405.32 ± 98.82; Log BB [1]: −0.9; Tmax [1, 3]: 1 h; Cmax ([1]; rat, plasma): 1470 ± 41 ng/mL; AUC(0-t) ([1]; rat, plasma): 3280 ± 244 ng·h/mL; half-life [1, 4]: 1.21 h; Tmax [1, 5]: 1 h; CL/F ([1]; rat, plasma): 51.2 mL/min/kg
O=C(Nc1ccc(N2S(=O)(=O)c3ccccc3S2(=O)=O)cc1)c1ccco1 [drawing 140]			V/F [1]: 1.49 L; Cmax Brain ([1]; brain): 2842.81 ± 544.93 ng/mL or g; AUC(0-8) Brain ([1]; brain): 12937.04 ± 2079.74; Log BB [1]: −0.19; half-life [1, 2]: 3.79 h; Tmax [1, 3]: 1 h; Cmax ([1]; rat, plasma): 5690 ± 1360 ng/mL; AUC(0-t) ([1]; rat, plasma): 20500 ± 5180 ng·h/mL; half-life [1, 4]: 2.39 h; Tmax [1, 5]: 1 h; CL/F ([1]; rat, plasma): 7.16 mL/min/kg

Second part, led by results:

% GluMax (mGluR4)	EC50 (mGluR4)	Compound	other results
284%	50 nM	O=C(Nc1ccc(N2S(=O)(=O)c3ccccc3S2(=O)=O)cc1)c1ccco1 [Example 2, N-(4-(1,1,3,3-tetraoxidobenzo[d][1,3,2]dithiazol-2-yl)phenyl)furan-2-carboxamide]	
254%	38.1 nM	O=C(Nc1ccc(N2S(=O)(=O)c3ccccc3S2(=O)=O)cc1)c1ccccn1 [Example 4, N-(4-(1,1,3,3-tetraoxidobenzo[d][1,3,2]dithiazol-2-yl)phenyl)picolinamide]	
247%	286 nM	O=C(Nc1ccc(N2S(=O)(=O)c3ccccc3S2(=O)=O)cc1)c1ccncn1 [Example 6, N-(4-(1,1,3,3-tetraoxidobenzo[d][1,3,2]dithiazol-2-yl)phenyl)pyrimidine-4-carboxamide]	
216%	142 nM	O=C(Nc1ccc(N2S(=O)(=O)c3ccccc3S2(=O)=O)cc1)c1nccs1 [Example 7, N-(4-(1,1,3,3-tetraoxidobenzo[d][1,3,2]dithiazol-2-yl)phenyl)thiazole-2-carboxamide]	
231%	68.8 nM	O=C(Nc1ccc(N2S(=O)(=O)c3ccccc3S2(=O)=O)cc1)c1cscn1 [Example 10, N-(4-(1,1,3,3-tetraoxidobenzo[d][1,3,2]dithiazol-2-yl)phenyl)thiazole-4-carboxamide]	
195%	1650 nM	O=C(Nc1ccc(N2S(=O)(=O)c3ccccc3S2(=O)=O)cc1)c1ncc(F)cc1F [Example 11, 3,5-Difluoro-N-(4-(1,1,3,3-tetraoxidobenzo[d][1,3,2]dithiazol-2-yl)phenyl)picolinamide]	
84%	272 nM	O=C(Nc1ccc(F)cn1)c1ccc(N2S(=O)(=O)c3ccccc3S2(=O)=O)cc1 [Example 15, N-(5-fluoropyridin-2-yl)-4-(1,1,3,3-tetraoxidobenzo[d][1,3,2]dithiazol-2-yl)benzamide]	
